Laboratory results from the kinase profiling compilation of Christmann-Franck et al. (2016).

Experiments:
Test in all cases: radiometric filter-binding kinase assay, Kinase HotSpot
Conditions in all cases: compound 0.5 µM; ATP 10 µM
MST1R (human) = MST1R (human) (UniProt Q04912)
SYK (human) = SYK (human) (UniProt P43405)
GRK6 (human) = GRK6 (human) (UniProt P43250)
MARK2 (human) = MARK2 (human) (UniProt Q7KZI7)
SRMS (human) = SRMS (human) (UniProt Q9H3Y6)
EPHA3 (human) = EPHA3 (human) (UniProt P29320)
EPHA7 (human) = EPHA7 (human) (UniProt Q15375)
IRAK1 (human) = IRAK1 (human) (UniProt P51617)
EPHA1 (human) = EPHA1 (human) (UniProt P21709)
NEK3 (human) = NEK3 (human) (UniProt P51956)
CAMK1 (human) = CAMK1 (human) (UniProt Q14012)
PRKCB1 (human) = PRKCB1 (human) (UniProt P05771)
STK25 (human) = STK25 (human) (UniProt O00506)
CDK5 CDK5R1 p25 (human) = CDK5 CDK5R1 p25 (human) (UniProt Q00535+Q15078)
MAPK1 (human) = MAPK1 (human) (UniProt P28482)
NEK6 (human) = NEK6 (human) (UniProt Q9HC98)
BRSK1 (human) = BRSK1 (human) (UniProt Q8TDC3)
MAP3K5 (human) = MAP3K5 (human) (UniProt Q99683)
HIPK2 (human) = HIPK2 (human) (UniProt Q9H2X6)
HIPK1 (human) = HIPK1 (human) (UniProt Q86Z02)
CSNK1G1 (human) = CSNK1G1 (human) (UniProt Q9HCP0)
LTK (human) = LTK (human) (UniProt P29376)
MAPK8 (human) = MAPK8 (human) (UniProt P45983)
EPHA2 (human) = EPHA2 (human) (UniProt P29317)
ULK2 (human) = ULK2 (human) (UniProt Q8IYT8)
PRKD2 (human) = PRKD2 (human) (UniProt Q9BZL6)
PRKCI (human) = PRKCI (human) (UniProt P41743)
ACVR1 (human) = ACVR1 (human) (UniProt Q04771)
CHUK (human) = CHUK (human) (UniProt O15111)
TAOK1 (human) = TAOK1 (human) (UniProt Q7L7X3)
DDR2 (human) = DDR2 (human) (UniProt Q16832)
FER (human) = FER (human) (UniProt P16591)
CSNK2A1 (human) = CSNK2A1 (human) (UniProt P68400)
NEK7 (human) = NEK7 (human) (UniProt Q8TDX7)
NEK4 (human) = NEK4 (human) (UniProt P51957)
CAMK2D (human) = CAMK2D (human) (UniProt Q13557)
RPS6KB1 (human) = RPS6KB1 (human) (UniProt P23443)
CAMK1G (human) = CAMK1G (human) (UniProt Q96NX5)
EPHB1 (human) = EPHB1 (human) (UniProt P54762)
DAPK1 (human) = DAPK1 (human) (UniProt P53355)
PTK6 (human) = PTK6 (human) (UniProt Q13882)

Sequence of MST1R (human) (Q04912 whole entry, looked up): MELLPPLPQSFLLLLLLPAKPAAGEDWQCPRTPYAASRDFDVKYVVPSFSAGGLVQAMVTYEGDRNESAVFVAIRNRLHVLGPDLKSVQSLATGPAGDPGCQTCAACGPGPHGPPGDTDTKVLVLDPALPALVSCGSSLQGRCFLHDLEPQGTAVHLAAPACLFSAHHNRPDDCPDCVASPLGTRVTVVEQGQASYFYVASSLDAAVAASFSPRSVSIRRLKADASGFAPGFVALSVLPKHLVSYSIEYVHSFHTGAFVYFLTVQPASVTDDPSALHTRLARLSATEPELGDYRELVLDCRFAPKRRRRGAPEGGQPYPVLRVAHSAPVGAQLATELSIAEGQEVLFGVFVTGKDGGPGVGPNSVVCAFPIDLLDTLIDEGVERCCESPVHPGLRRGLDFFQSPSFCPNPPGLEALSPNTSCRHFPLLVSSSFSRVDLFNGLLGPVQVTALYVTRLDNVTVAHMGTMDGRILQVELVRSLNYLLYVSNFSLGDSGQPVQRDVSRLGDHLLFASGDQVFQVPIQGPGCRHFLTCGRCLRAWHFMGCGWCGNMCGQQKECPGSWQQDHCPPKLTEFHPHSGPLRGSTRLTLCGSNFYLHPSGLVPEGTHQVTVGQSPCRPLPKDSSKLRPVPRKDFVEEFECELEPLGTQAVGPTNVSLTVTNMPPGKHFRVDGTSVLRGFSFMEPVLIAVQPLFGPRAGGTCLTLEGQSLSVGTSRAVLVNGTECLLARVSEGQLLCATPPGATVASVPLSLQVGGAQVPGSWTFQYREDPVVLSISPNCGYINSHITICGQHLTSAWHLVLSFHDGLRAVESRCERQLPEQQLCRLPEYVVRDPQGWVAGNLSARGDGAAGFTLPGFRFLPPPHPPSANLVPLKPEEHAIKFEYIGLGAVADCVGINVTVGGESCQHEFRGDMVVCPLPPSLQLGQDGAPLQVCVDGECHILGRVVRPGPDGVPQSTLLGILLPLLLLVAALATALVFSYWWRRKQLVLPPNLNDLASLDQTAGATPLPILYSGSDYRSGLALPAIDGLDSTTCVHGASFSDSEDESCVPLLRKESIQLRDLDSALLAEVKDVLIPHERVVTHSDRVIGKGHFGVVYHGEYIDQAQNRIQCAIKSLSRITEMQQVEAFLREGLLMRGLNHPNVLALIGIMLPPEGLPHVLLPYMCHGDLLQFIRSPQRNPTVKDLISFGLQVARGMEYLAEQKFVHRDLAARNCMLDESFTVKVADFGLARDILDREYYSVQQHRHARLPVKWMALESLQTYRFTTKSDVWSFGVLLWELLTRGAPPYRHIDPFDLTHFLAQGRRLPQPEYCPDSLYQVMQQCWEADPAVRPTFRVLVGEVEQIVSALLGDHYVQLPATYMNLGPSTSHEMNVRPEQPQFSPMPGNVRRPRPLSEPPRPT
Sequence of EPHA7 (human) (Q15375 whole entry, looked up): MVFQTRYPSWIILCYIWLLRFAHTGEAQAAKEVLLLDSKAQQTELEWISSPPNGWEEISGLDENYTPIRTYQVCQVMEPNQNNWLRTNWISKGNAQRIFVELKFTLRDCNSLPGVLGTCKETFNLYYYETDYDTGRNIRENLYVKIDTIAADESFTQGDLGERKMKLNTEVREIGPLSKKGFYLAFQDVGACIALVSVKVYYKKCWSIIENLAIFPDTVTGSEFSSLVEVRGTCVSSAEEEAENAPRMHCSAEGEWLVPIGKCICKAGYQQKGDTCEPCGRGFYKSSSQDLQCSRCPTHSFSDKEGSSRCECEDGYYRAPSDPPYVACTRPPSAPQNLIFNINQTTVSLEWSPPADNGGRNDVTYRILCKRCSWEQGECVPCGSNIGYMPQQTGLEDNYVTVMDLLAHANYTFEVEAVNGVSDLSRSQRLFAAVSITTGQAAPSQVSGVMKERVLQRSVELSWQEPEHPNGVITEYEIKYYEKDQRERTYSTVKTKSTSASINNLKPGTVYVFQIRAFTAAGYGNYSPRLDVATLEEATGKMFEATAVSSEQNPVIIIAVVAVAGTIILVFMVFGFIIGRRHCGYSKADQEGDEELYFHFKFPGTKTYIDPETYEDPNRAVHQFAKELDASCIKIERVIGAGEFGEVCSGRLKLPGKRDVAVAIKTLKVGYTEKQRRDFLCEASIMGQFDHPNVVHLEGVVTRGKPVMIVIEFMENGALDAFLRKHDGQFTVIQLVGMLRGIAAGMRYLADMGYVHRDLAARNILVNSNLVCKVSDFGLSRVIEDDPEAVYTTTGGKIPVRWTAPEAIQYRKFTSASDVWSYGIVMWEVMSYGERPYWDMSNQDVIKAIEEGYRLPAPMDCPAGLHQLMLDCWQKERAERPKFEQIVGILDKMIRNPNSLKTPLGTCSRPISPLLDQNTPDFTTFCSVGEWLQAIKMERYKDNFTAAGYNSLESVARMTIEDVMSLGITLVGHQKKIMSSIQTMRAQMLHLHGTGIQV
Sequence of IRAK1 (human) (P51617 whole entry, looked up): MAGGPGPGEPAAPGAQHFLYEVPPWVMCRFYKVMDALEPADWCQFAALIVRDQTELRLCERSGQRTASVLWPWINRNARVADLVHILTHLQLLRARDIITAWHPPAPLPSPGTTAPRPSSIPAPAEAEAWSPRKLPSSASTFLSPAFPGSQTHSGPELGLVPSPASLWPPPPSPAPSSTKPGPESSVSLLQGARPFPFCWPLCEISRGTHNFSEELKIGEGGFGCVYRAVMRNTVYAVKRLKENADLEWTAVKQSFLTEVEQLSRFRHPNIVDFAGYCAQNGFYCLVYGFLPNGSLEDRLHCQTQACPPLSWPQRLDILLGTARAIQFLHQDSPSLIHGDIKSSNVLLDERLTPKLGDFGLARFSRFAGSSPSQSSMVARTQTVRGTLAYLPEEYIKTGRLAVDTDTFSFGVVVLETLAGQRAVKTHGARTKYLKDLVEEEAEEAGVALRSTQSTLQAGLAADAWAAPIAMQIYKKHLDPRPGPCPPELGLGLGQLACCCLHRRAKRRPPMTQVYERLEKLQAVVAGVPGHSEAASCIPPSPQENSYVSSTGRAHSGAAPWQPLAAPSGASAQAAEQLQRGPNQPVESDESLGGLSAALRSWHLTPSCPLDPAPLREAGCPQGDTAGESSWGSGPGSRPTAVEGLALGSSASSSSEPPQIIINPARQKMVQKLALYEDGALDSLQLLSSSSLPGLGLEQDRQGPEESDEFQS
Sequence of NEK4 (human) (P51957 whole entry, looked up): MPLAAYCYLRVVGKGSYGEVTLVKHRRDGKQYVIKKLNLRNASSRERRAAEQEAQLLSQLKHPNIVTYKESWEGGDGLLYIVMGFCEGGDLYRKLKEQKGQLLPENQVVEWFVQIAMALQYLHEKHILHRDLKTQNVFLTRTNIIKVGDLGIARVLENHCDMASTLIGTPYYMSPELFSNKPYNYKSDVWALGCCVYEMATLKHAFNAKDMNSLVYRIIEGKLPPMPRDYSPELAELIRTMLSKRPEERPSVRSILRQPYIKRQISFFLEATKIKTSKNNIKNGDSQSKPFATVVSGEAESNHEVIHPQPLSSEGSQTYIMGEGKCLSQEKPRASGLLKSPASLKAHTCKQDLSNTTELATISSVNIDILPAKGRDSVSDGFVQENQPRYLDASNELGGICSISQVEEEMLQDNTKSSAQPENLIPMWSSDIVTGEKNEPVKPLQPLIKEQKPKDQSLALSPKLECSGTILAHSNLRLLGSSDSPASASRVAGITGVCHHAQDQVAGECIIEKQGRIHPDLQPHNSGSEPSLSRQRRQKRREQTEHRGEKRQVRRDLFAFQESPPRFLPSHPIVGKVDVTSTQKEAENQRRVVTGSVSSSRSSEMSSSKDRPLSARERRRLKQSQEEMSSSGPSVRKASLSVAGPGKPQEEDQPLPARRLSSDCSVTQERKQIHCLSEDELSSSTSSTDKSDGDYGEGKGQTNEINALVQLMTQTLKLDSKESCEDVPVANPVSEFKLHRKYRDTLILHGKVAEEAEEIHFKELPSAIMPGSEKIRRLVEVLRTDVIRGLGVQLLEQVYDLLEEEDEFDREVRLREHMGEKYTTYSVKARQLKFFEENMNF
Sequence of ACVR1 (human) (Q04771 whole entry, looked up): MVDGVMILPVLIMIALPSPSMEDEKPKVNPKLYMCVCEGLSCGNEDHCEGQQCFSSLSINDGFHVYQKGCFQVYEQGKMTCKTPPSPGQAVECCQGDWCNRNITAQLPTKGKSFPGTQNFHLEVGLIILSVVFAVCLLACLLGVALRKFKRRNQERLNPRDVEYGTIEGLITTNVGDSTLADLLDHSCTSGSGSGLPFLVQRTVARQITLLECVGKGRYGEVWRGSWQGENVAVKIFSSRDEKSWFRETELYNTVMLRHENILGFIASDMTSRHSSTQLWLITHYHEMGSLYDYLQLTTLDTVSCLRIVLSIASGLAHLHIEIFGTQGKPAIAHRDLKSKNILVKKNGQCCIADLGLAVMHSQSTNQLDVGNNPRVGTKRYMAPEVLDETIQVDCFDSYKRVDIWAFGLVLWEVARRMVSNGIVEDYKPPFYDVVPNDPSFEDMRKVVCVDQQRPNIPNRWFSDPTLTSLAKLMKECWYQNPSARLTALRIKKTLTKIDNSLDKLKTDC
Sequence of CAMK2D (human) (Q13557 whole entry, looked up): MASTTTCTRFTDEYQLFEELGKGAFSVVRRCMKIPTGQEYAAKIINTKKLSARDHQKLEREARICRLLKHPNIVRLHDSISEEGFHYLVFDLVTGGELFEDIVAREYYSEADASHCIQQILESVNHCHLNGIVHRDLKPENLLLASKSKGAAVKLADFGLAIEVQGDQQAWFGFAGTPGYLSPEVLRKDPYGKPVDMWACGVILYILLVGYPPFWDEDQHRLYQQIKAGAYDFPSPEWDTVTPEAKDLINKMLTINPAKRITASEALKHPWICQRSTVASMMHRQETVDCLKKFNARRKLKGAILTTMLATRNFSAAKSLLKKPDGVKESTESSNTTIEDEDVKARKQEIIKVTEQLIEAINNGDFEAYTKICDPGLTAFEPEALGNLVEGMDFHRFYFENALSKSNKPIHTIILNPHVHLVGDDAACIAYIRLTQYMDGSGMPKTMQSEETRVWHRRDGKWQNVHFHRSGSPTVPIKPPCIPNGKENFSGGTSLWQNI

| SMILES | residual activity (MST1R (human)) [%] | residual activity (SYK (human)) [%] | residual activity (GRK6 (human)) [%] | residual activity (SRMS (human)) [%] | residual activity (EPHA3 (human)) [%] | residual activity (EPHA7 (human)) [%] | residual activity (IRAK1 (human)) [%] | residual activity (EPHA1 (human)) [%] | residual activity (CAMK1 (human)) [%] | residual activity (PRKCB1 (human)) [%] | residual activity (STK25 (human)) [%] | residual activity (MAPK1 (human)) [%] | residual activity (NEK6 (human)) [%] | residual activity (BRSK1 (human)) [%] | residual activity (MAP3K5 (human)) [%] | residual activity (HIPK1 (human)) [%] | residual activity (CSNK1G1 (human)) [%] | residual activity (LTK (human)) [%] | residual activity (MAPK8 (human)) [%] | residual activity (EPHA2 (human)) [%] | also measured |
| --- | --- | --- | --- | --- | --- | --- | --- | --- | --- | --- | --- | --- | --- | --- | --- | --- | --- | --- | --- | --- | --- |
| c1ccc(-c2n[nH]c3c2oc2ccccc23)cc1 | 87.4 | 97.7 | 102 | 99.5 | 104 | 104 | 98 | 78.6 | 85.2 | 103 | 89.6 | 118 | 99 | 92.4 | 97.4 | 103 | 91.6 | 94.8 | 79.6 | 105 | residual activity (MARK2 (human)): 92.9%; residual activity (NEK3 (human)): 98.9%; residual activity (CDK5 CDK5R1 p25 (human)): 99%; residual activity (HIPK2 (human)): 99.6%; residual activity (ULK2 (human)): 96.4%; residual activity (PRKD2 (human)): 86.9%; residual activity (PRKCI (human)): 85.9%; residual activity (ACVR1 (human)): 99.4%; residual activity (CHUK (human)): 92.3%; residual activity (TAOK1 (human)): 121%; residual activity (DDR2 (human)): 96%; residual activity (FER (human)): 103%; residual activity (CSNK2A1 (human)): 87.2%; residual activity (NEK7 (human)): 105%; residual activity (NEK4 (human)): 92.9%; residual activity (CAMK2D (human)): 94.5%; residual activity (RPS6KB1 (human)): 99.9%; residual activity (CAMK1G (human)): 100%; residual activity (EPHB1 (human)): 103%; residual activity (DAPK1 (human)): 71% |
| O=S(=O)(c1cccc2cnccc12)N1CCCNCC1 | 92.7 | 84.3 | 95.4 | 97.5 | 105 | 97.3 | 86.2 | 79.9 | 99.4 | 94.6 | 84.8 | 98.1 | 97.6 | 97.5 | 88.7 | 96.8 | 89.6 | 95.2 | 89.7 | 102 | residual activity (MARK2 (human)): 108%; residual activity (PTK6 (human)): 96.1%; residual activity (ULK2 (human)): 101%; residual activity (PRKD2 (human)): 85%; residual activity (PRKCI (human)): 87.2%; residual activity (ACVR1 (human)): 96.5%; residual activity (TAOK1 (human)): 123%; residual activity (DDR2 (human)): 92.2%; residual activity (FER (human)): 103%; residual activity (CSNK2A1 (human)): 94.9%; residual activity (NEK7 (human)): 97.5%; residual activity (NEK4 (human)): 90.7%; residual activity (CAMK2D (human)): 98.5%; residual activity (RPS6KB1 (human)): 76.6%; residual activity (CAMK1G (human)): 101%; residual activity (EPHB1 (human)): 106%; residual activity (DAPK1 (human)): 79% |
| COc1ccc(COc2ccc(Cc3cnc(N)nc3N)cc2OC)cc1 | 104 | 89 | 99.8 | 95.9 | 109 | 101 | 123 | 85.7 | 103 | 102 | 97 | 110 | 99.4 | 95.6 | 89 | 110 | 92.7 | 100 | 91.9 | 107 | residual activity (PTK6 (human)): 96.1%; residual activity (NEK3 (human)): 98.1%; residual activity (CDK5 CDK5R1 p25 (human)): 103%; residual activity (HIPK2 (human)): 103%; residual activity (ULK2 (human)): 105%; residual activity (PRKD2 (human)): 99.4%; residual activity (PRKCI (human)): 91.6%; residual activity (ACVR1 (human)): 100%; residual activity (CHUK (human)): 94.7%; residual activity (TAOK1 (human)): 110%; residual activity (DDR2 (human)): 99.6%; residual activity (FER (human)): 93.4%; residual activity (CSNK2A1 (human)): 105%; residual activity (NEK7 (human)): 100%; residual activity (NEK4 (human)): 92.2%; residual activity (CAMK2D (human)): 109%; residual activity (RPS6KB1 (human)): 89.5%; residual activity (CAMK1G (human)): 98.3%; residual activity (EPHB1 (human)): 103%; residual activity (DAPK1 (human)): 102% |
